From publication PMC5424146, “Activity-based protein profiling as a robust method for enzyme identification and screening in extremophilic Archaea” (Nature Communications, 2017)

Experiments:
[1] = biological target: T1, esterase/lipase Saci_1105 (1105) (Sulfolobus acidocaldarius, UniProt Q4J9S2); experiment: biochemical
T1 construct: full gene under the maltose promoter (pSVAmZ-saci_1105) in S. acidocaldarius esterase double knockout; crude lysate or living cells

TM_1022 [2] = biological target: T2, TM_1022 (Thermotoga maritima, UniProt G4FEX6); experiment: esterase activity, pNP-octanoate hydrolysis, lysate of double knockout expressing TM_[…]; also competitive labelling at […]; format: biochemical; details: pNP-octanoate 0.5 mM; pH 8.0; 35 °C; pre-incubation 1 h at 60 °C; covalent
T2 construct: gene with own promoter (about 500 bp upstream; pSVA-p-tm1022) in S. acidocaldarius esterase double knockout
T2 sequence (G4FEX6 1-253): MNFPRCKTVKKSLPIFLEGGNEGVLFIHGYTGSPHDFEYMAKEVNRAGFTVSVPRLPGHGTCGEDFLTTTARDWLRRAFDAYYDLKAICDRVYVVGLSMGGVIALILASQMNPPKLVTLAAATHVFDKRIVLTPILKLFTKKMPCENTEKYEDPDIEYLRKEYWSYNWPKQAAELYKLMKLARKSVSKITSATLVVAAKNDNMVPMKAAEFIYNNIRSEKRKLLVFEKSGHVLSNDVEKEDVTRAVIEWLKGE

[3] = biological target: T3, acetylesterase Saci_1116 (1116) (Sulfolobus acidocaldarius, UniProt Q4J9R2); experiment: esterase activity, pNP-octanoate hydrolysis at […] nm, lysate of delta […] strain; format: biochemical; details: pNP-octanoate 0.5 mM; pH 8.0; 35 °C; pre-incubation 1 h at 60 °C; covalent
T3 construct: full gene under the maltose promoter (pSVA-saci_1116) in the esterase double knockout, or native protein in the delta 1105 strain
T3 sequence (Q4J9R2 1-305): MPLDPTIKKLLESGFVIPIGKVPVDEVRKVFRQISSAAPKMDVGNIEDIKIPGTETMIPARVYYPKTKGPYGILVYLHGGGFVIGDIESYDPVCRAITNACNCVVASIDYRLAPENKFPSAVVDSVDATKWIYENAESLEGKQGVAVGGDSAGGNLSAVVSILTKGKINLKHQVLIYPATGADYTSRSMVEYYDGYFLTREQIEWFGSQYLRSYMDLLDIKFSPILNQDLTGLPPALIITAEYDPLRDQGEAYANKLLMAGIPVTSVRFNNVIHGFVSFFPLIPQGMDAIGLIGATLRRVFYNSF

TM_1022 [4] = biological target: T2, TM_1022; experiment: halo on indicator plate, double knockout expressing TM_[…]; format: cell-based; details: 1% (v/v) in plate; 78 °C; up to 3 days

T1 sequence (Q4J9S2 1-306): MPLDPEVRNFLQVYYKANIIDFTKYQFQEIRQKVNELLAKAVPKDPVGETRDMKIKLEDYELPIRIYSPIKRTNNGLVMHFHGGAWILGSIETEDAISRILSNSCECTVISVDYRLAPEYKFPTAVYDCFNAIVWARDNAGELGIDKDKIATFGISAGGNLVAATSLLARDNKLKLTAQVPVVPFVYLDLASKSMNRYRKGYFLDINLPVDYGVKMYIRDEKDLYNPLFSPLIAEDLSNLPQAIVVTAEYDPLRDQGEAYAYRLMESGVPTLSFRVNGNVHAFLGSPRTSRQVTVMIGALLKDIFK

In the case of `C#CCNC(=O)OCCOCCOCCOCCP(=O)(OCC)Oc1ccc([N+](=O)[O-])cc1` (centres unmarked) [compound 2, NP≡], the IC50 [1] is reported as 150 nM.
`CCOP(=O)(OCC)Oc1ccc([N+](=O)[O-])cc1` [paraoxon] was tested, and the “reduced activity at 250 μM” value (TM_1022 [2]) was “pre-incubation with paraoxon led in all cases to a significantly reduced esterase activity” and the “reduced activity at 250 μM” value [3] was “pre-incubation with paraoxon led in all cases to a significantly reduced esterase activity”.
In the case of `CCCC(=O)OCC(COC(=O)CCC)OC(=O)CCC` [tributyrin], the “halo on indicator plate, double knockout expressing TM_1022” value (TM_1022 [4]) is reported as “For both substrates, a time-dependent formation of a halo could be observed for this culture”.
With `CCCCCC(=O)OCC(COC(=O)CCCCC)OC(=O)CCCCC` [tricaproin] the “halo on indicator plate, double knockout expressing TM_1022” value (TM_1022 [4]) was “the halo for the tricaproin substrate was thereby slightly larger than for tributyrate”.
